Tests used:
[1] = Stability in human liver microsomes; type: in vitro ADME; conditions: 37° C., NADPH
Description: Half-Life Human Microsomes:
(§1) Compounds were evaluated for stability in human liver microsomes. A 10 mM stock solution of the compound being evaluated was prepared in DMSO and diluted with water:acetonitrile (1:1) to a concentration of 1 mM. A working concentration of 100 μM was prepared by further dilution with water:acetonitrile (1:1). To make the preincubation mixture, 2.5 μL of the diluted compound was combined with 75 μL of human liver microsomes at 3.33 mg/mL, and 85 μL of 100 mM potassium phosphate buffer, and this mixture was pre-incubated for 10 min at 37° C. To make the 60 minute mixture without cofactor, 32.5 μL of the preincubation mixture was combined with 17.5 μL of 100 mM potassium phosphate buffer and incubated for 60 min at 37° C. To make the 0 min sample with cofactor (NADPH), 16.25 μL of the preincubation mixture was combined with 200 μL of acetonitrile containing internal standard and 8.75 μL of cofactor (NADPH). To make the incubation mixture, 62 μL of cofactor (2.85 mM) was combined with the remaining incubation mixture, and incubated for 60 min at 37° C. To prepare the sample mixture to be evaluated, 25 μL incubation mixture was combined with 200 μL of acetonitrile containing internal standard and vortexed for 5 min at 1200 rpm, then centrifuged for 10 min at 4000 rpm. The supernatant was diluted 2 fold with water and injected on LC-MS/MS. The sample mixture was evaluated by LC-MS/MS using 10 mM ammonium acetate with 0.100 FA as the aqueous mobile phase, and methanol as the organic mobile phase.

[2] = Stability in mouse liver microsomes; type: in vitro ADME
Description: as §1
Half-Life Mouse Microsomes:
Compounds were evaluated in mouse liver microsomes following a similar procedure as described above for human liver microsomes. A similar procedure could be used to evaluate compounds in rat liver microsomes.

[3] = system: SREBP; test: Reporter Screening Assay (SRE-luciferase reporter, HepG2); type: cell-based; conditions: Homo sapiens; SRE-luciferase reporter HepG2 cells, 24 hours, 0.01 uM to 10 uM; read-out: I: Reporter Screening Assay (Ave EC50 (nM))
Description: Reporter Screening Assay: This assay was used to evaluate the effect on transcriptional activity SREBP of selected compounds using an SRE-luciferase reporter construct. On day 1, 10,000 cells were seeded in a 96 well (white) plate as per the plate map in Growth media without antibiotics. Cells were incubated at 37° C. for 8 hours. After 8 hours, cells were washed with DPBS for complete removal of FBS. DPBS was completely removed and Growth media was replaced with phenol free treatment medium (90 μl) with different FBS concentrations. The cells were then incubated at 37° C. for 24 hours with varying doses (0.01 uM to 10 uM) of compounds. Then a Luciferase assay was performed.
Reagents for performing Luciferase assay were stored at −20° C. To a tube of lyophilized assay substrate was added 1 mL Substrate Solvent and mixed well. The Substrate tube after reconstitution was covered with aluminum foil so as to keep it protected from light. The assay buffer was thawed to room temperature. To 20 mL Assay Buffer was added 200 μL of reconstituted 100× Substrate and mixed well. The reconstituted substrate as well as the assay solution (buffer+substrate) was protected from light throughout the procedure by keeping it covered with aluminum foil. Using a multi-channel pipette, 100 μL Assay Solution (buffer+substrate) was added directly to each sample well in Plate 1, which was incubated for 30 min (plate was covered with aluminum foil). After 30 min incubation, the plate was read for total luminescence. Each well was read for 2 seconds in a plate luminometer. (Microplate reader Envision Microplate reader from Perkin Elmer). Precaution was taken to incubate plate exactly for 30 min prior to reading on the plate reader.
SREBPv1 Reporter cell line: HepG2—#32251. Growth Medium: MEM (Corning 10-010), 10% FBS, 1% GlutaMax (Invitrogen Catalog #35050061), […] (Invitrogen Catalog # A1113803) and 1% Penicillin-Streptomycin (Pen-Strep). Treatment Media: Phenol-free MEM (Invitrogen Catalog #51200-038) and 1% GlutaMax (Invitrogen Catalog #35050061). Luciferase Assay: LightSwitch Luciferase Assay Kit (Catalog #32032). LDH assay: Pierce LDH Cytotoxicity Assay Kit (Catalog # SD249616).

percent of compound remaining after 60 min in human liver microsomes [1]	percent parent remaining after 60 min in liver microsomes [2]	EC50 [3] [nM]	Compound
+++ (>60.1 = +++)	++ (30.1-60 = ++)	250 to 500	CC(C)(CO)c1cc(-c2csc(-c3ccc(NC(=O)OC4CC4)cc3Cl)c2)ccn1 [Compound I-8918, Cyclopropyl (3-chloro-4-(4-(2-(1-hydroxy-2-methylpropan-2-yl)pyridin-4-yl)thiophen-2-yl)phenyl)carbamate]
+++ (>60.1 = +++)	+++ (>60.1 = +++)	> 500	CC(C)(C)c1cc(-c2csc(-c3ccc(NC(=O)NC4CCNCC4)cc3Cl)c2)ccn1 [Compound I-8755, 1-(4-(4-(2-(tert-butyl)pyridin-4-yl)thiophen-2-yl)-3-chlorophenyl)-3-(piperidin-4-yl)urea]
+++ (>60.1 = +++)	+++ (>60.1 = +++)	< 249	CC(C)(O)c1cc(-c2csc(-c3ccc(NS(C)(=O)=O)cc3Cl)c2)ccn1 [Compound I-9064, N-(3-chloro-4-(4-(2-(2-hydroxypropan-2-yl)pyridin-4-yl)thiophen-2-yl)phenyl)methanesulfonamide]
+++ (>60.1 = +++)	+++ (>60.1 = +++)	< 249	CC(C)OC(=O)Nc1ccc(-c2cc(-c3ccnc(C(C)(C)C)c3)cs2)c(Cl)c1 [Compound I-8741, Isopropyl (4-(4-(2-(tert-butyl)pyridin-4-yl)thiophen-2-yl)-3-chlorophenyl)carbamate]

Continued, molecule first:

Compound	percent of compound remaining after 60 min in human liver microsomes [1]	percent parent remaining after 60 min in liver microsomes [2]	EC50 [3] [nM]
CC(C)OC(=O)Nc1ccc(-c2cc(-c3ccnc(OC4CC4)c3)cs2)c(Cl)c1 [Compound I-9060, isopropyl (3-chloro-4-(4-(2-cyclopropoxypyridin-4-yl)thiophen-2-yl)phenyl)carbamate]	+++ (>60.1 = +++)	+++ (>60.1 = +++)	< 249
CC(C)(CO)c1cc(-c2csc(-c3ccc(N4CCOC4=O)cc3Cl)c2)ccn1 [Compound I-8939, 3-(3-chloro-4-(4-(2-(1-hydroxy-2-methylpropan-2-yl)pyridin-4-yl)thiophen-2-yl)phenyl)oxazolidin-2-one]	++ (30.1-60 = ++)	+++ (>60.1 = +++)	250 to 500
CN(c1ccc(-c2cc(-c3ccnc(C4CC4)c3)cs2)c(Cl)c1)S(C)(=O)=O [Compound I-9037, N-(3-chloro-4-(4-(2-cyclopropylpyridin-4-yl)thiophen-2-yl)phenyl)-N-methylmethanesulfonamide]	+++ (>60.1 = +++)	+++ (>60.1 = +++)	< 249

Source: patent publication US20220056018A1, “SREBP INHIBITORS COMPRISING A THIOPHENE CENTRAL RING” (Capulus Therapeutics, LLC, priority 2019, published 2022)
